Data published in US7807669B2, “Biaromatic compounds which activate PPARγ type receptors and cosmetic/pharmaceutical compositions comprised thereof” (Galderma Research & Development, priority 2002, dated 2010).
pKd: −log10 of the molar value.

Assays:
Assay type in all cases: cell-based
PPARγ = target: T1, PPARγ (Homo sapiens, UniProt P37231); assay: Crossed-curve PPAR transactivation assay (PPARγ); conditions: HeLN cells stably transfected with ERE-βGlob-Luc-SV-Neo and Gal-hPPARγ; crossed curves against reference agonist, Schild regression; n.a. means not active; read-out: PPAR gamma Kd app
T1 construct: The reporter is ERE-βGlob-Luc-SV-Neo
T1 sequence (P37231 238-505 limits assumed): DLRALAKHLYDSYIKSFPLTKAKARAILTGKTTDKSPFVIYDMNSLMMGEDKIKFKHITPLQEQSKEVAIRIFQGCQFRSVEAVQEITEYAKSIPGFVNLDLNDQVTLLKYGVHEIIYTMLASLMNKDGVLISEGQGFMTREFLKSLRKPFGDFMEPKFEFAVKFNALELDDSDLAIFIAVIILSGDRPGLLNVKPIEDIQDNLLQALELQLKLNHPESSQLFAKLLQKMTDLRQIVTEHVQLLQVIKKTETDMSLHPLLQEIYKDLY
Method: (§1) Activation of the receptors by an agonist (activator) in HeLN cells leads to the expression of a reporter gene, luciferase, which, in the presence of a substrate, generates light. The modulation of the receptors is measured by quantifying the luminescence produced after incubation of the cells in the presence of a reference agonist. The ligands will displace the agonist from its site. The measurement of the activity is performed by quantifying the light produced. This measurement makes it possible to determine the modulatory activity of the compounds according to the invention by determining the constant that is the affinity of the molecule for the receptor. Since this value can fluctuate depending on the basal activity and the expression of the receptor, it is referred to as Kd apparent (KdApp in nM).
(§2) To determine this constant, “crossed curves” for the test product, against a reference agonist, are prepared using a 96-well plate: 10 concentrations of the test product plus a concentration 0 are arranged in a line, and 7 concentrations of the agonist plus a concentration 0 are arranged in a column. This is 88 measurement points for 1 product and 1 receptor. The remaining 8 wells are used for repeatability controls.
(§3) Measurements are also taken for total agonist controls with the same products.
(§4) The HeLN cell lines used are stable transfectants containing the plasmids ERE-βGlob-Luc-SV-Neo (reporter gene) and PPAR (α, δ, γ) Gal-hPPAR. These cells are seeded in 96-well plates at a rate of 10 000 cells per well in 100 μl of DMEM medium without phenol red and supplemented with 10% of defatted calf serum. The plates are then incubated for 16 hours at 37° C. and 7% CO2.
(§5) The various dilutions of the test products and of the reference ligand are added at a rate of 5 μl per well. The plates are then incubated for 18 hours at 37° C. and 7% CO2. The culture medium is removed by turning over and 100 μl of a 1:1 PBS/luciferin mixture are added to each well. After 5 minutes, the plates are read using the luminescence reader.

PPARα = target: T2, PPARα (Homo sapiens, UniProt Q07869); assay: Crossed-curve PPAR transactivation assay (PPARα); conditions: HeLN cells stably transfected with ERE-βGlob-Luc-SV-Neo and Gal-hPPARα; crossed curves against reference agonist, Schild regression; n.a. means not active; read-out: PPAR alpha Kd app
T2 construct: The reporter is ERE-βGlob-Luc-SV-Neo
T2 sequence (Q07869 239-468 limits assumed): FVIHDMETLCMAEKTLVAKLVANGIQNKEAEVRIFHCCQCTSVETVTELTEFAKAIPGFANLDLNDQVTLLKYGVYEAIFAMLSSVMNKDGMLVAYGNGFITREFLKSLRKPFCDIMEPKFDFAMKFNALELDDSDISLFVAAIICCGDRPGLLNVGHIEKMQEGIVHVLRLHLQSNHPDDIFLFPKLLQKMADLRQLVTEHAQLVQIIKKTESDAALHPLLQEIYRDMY
Method: as §1, §2, §3, §4, §5

PPARδ = target: T3, PPARδ (Homo sapiens, UniProt Q03181); assay: Crossed-curve PPAR transactivation assay (PPARδ); conditions: HeLN cells stably transfected with ERE-βGlob-Luc-SV-Neo and Gal-hPPARδ; crossed curves against reference agonist, Schild regression; n.a. means not active; read-out: PPAR delta Kd app
T3 construct: The reporter is ERE-βGlob-Luc-SV-Neo
T3 sequence (Q03181 211-441 limits assumed): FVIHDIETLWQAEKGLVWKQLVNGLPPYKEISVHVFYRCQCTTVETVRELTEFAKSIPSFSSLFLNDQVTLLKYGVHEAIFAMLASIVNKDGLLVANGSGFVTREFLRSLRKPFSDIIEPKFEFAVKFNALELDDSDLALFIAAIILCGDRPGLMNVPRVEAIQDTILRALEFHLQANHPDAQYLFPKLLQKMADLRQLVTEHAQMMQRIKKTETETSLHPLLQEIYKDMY
Method: as §1
To determine this constant, “crossed curves” for the test product, against a reference agonist, are prepared using a 96-well plate: 10 concentrations of the test product plus a concentration 0 are arranged in a line, and 7 concentrations of the agonist plus a concentration 0 are arranged in a column. This is 88 measurement points for 1 product and 1 receptor. […]
The various dilutions of the test products and of the reference ligand are added at a rate of 5 μl per well. […] After 5 minutes, the plates are read using the luminescence reader.

Row | SMILES | pKd (PPARγ) | pKd (PPARα) | pKd (PPARδ)
1 | CCCCCCCNC(=O)N(C)c1cccc(-c2ccc(C[C@H](Nc3ccccc3C(=O)c3ccccc3)C(=O)NCc3ccccn3)cc2)c1 [Example 18, (S)-2-(2-benzoylphenylamino)-3-[3′-(3-heptyl-1-methylureido)biphenyl-4-yl]-N-pyridin-2-ylmethylpropionamide] | 7.22 |  | 
2 | CCCCCCCNC(=O)N(C)c1cccc(-c2ccc(C[C@H](Nc3ccccc3C(=O)c3ccccc3)C(=O)OCCCC)cc2)c1 [Example 39, butyl (S)-2-(2-benzoylphenylamino)-3-[3′-(3-heptyl-1-methylureido)biphenyl-4-yl]propionate] | 7.52 |  | 
3 | CCCCCCCNC(=O)N(C)c1cccc(-c2ccc(C[C@H](Nc3ccccc3C(=O)c3ccccc3)C(=O)N3CCC(C)CC3)cc2)c1 [Example 9, (S)-1-{4′-[2-(2-benzoylphenylamino)-3-(4-methylpiperid-1-yl)-3-oxopropyl]biphenyl-3-yl}-3-heptyl-1-methylurea] | 7.52 | 5.70 | 
4 | CCCCCCCNC(=O)N(C)c1cccc(-c2ccc(C[C@H](Nc3ccccc3C(=O)c3ccccc3)c3nnc(CCC)o3)cc2)c1 [Example 3, (S)-1-{4′-[2-(2-benzoylphenylamino)-2-(5-propyl[1,3,4]oxadiazol-2-yl)ethyl]biphenyl-3-yl}-3-heptyl-1-methylurea] | 7.52 |  | 
5 | CCCCCCCNC(=O)N(C)c1cccc(-c2ccc(C[C@H](Nc3ccccc3C(=O)c3ccccc3)C(=O)NCCN(C)C)cc2)c1 [Example 26, (S)-2-(2-benzoylphenylamino)-N-(2-dimethylaminoethyl)-3-[3′-(3-heptyl-1-methylureido)biphenyl-4-yl]propionamide] | 7.22 |  | 
6 | CCCCCCCNC(=O)N(C)c1cccc(-c2ccc(C[C@H](Nc3ccccc3C(=O)c3ccccc3)C(=O)N(Cc3ccccc3)Cc3ccccc3)cc2)c1 [Example 13, (S)-2-(2-benzoylphenylamino)-N,N-dibenzyl-3-[3′-(3-heptyl-1-methylureido)biphenyl-4-yl]propionamide] | 8.10 |  | 
7 | CCCCCCCNC(=O)N(C)c1cccc(-c2ccc(C[C@H](Nc3ccccc3C(=O)c3ccccc3)C(=O)NCCNC(C)=O)cc2)c1 [Example 10, (S)—N-(2-acetylaminoethyl)-2-(2-benzoylphenylamino)-3-[3′-(3-heptyl-1-methylureido)biphenyl-4-yl]propionamide] | 7.22 | 5.70 | 
8 | CCCCCCCNC(=O)N(C)c1cccc(-c2ccc(C[C@H](Nc3ccccc3C(=O)c3ccccc3)C(=O)N3CCN(C)CC3)cc2)c1 [Example 16, (S)-1-{4′-[2-(2-benzoylphenylamino)-3-(4-methylpiperazin-1-yl)-3-oxopropyl]biphenyl-3-yl}-3-heptyl-1-methylurea] | 7.52 |  | 
9 | CCCCCCCNC(=O)N(C)c1cccc(-c2ccc(C[C@H](Nc3ccccc3C(=O)c3ccccc3)C(=O)NCCCCC)cc2)c1 [Example 8, (S)-2-(2-benzoylphenylamino)-3-[3′-(3-heptyl-1-methylureido)biphenyl-4-yl]-N-pentylpropionamide] | 7.52 | 5.70 | 6.30

Next, values leading:

Row | pKd (PPARγ) | pKd (PPARα) | pKd (PPARδ) | SMILES
10 | 7.52 |  |  | CCCCCCCNC(=O)N(C)c1cccc(-c2ccc(C[C@H](Nc3ccccc3C(=O)c3ccccc3)C(=O)N(C)Cc3ccccc3)cc2)c1 [Example 20, (S)-2-(2-benzoylphenylamino)-N-benzyl-3-[3′-(3-heptyl-1-methylureido)biphenyl-4-yl]-N-methylpropionamide]
11 | 8.40 |  |  | CN(C(=O)Nc1ccc2ccccc2c1)c1cccc(-c2ccc(C[C@H](Nc3ccccc3C(=O)c3ccccc3)C(=O)O)cc2)c1 [Example 6, (S)-2-(2-benzoylphenylamino)-3-[3′-(1-methyl-3-naphthalen-2-ylureido)biphenyl-4-yl]propionic acid]
12 | 7.82 | 5.40 |  | CCCCCCCNC(=O)N(C)c1cccc(-c2ccc(C[C@H](Nc3ccccc3C(=O)c3ccccc3)C(=O)N(C)CCc3ccccc3)cc2)c1 [Example 27, (S)-2-(2-benzoylphenylamino)-3-[3′-(3-heptyl-1-methylureido)biphenyl-4-yl]-N-methyl-N-phenethylpropionamide]
13 | 7.82 |  |  | CC(=CC(=O)c1ccccc1)N[C@@H](Cc1ccc(-c2cccc(CN(C)C(=O)c3ccccc3)c2)cc1)C(=O)O [Example 31, (S)-3-{3′-[(benzoylmethylamino)methyl]biphenyl-4-yl}-2-(1-methyl-3-oxo-3-phenylpropenylamino)propionic acid]
14 | 6.30 | 5.70 |  | CN(Cc1cccc(-c2ccc(C[C@H](Nc3ccccc3C(=O)c3ccccc3)C(=O)O)cc2)c1)C(=O)c1ccccc1 [Example 29, (S)-3-{3′-[(benzoylmethylamino)methyl]biphenyl-4-yl}-2-(2-benzoylphenylamino)propionic acid]
